Emission maximum data for 16 compounds are collected here from the Deep4Chem optical property database.

This data set can be described thus: solvent given as SMILES.

In the case of `CCN(CC)c1ccc(OC)c(C=O)c1`, the emission maximum by setting is: (in CC#N) 548 nm; (in CC(C)O) 600 nm; (in CCCCCC) 470 nm; (in CCOC(C)=O) 518 nm; (in CO) 645 nm; (in CS(C)=O) 558 nm. For the same compound, the emission maximum came out at 509 nm (in Cc1ccccc1) and 538 nm (in ClCCl).

With `CCC1=C(C)C2=C(C)c3cc(I)cn3[B-](F)(F)[N+]2=C1C`, the emission maximum (in C1CCCCC1) stood at 532 nm; the emission maximum (in CC(C)=O) amounted to 532.5 nm; the emission maximum (in CCO) came to 534 nm; the emission maximum (in CCOC(C)=O) was determined as 531.5 nm; the emission maximum (in CO) came to 533.5 nm; the emission maximum (in OCC(F)(F)F) was found to be 530.5 nm.

For the compound `CCNc1cc2c(cc1C)C(c1ccccc1C(=O)O)=C1CCCC(/C=C/C3=[N+](C)c4ccc5ccccc5c4C3(C)C)=C1O2`, the emission maximum came to 749 nm (in CC#N), 741 nm (in CCO), 744 nm (in CO) and 748 nm (in ClC(Cl)Cl).

Compound `Oc1ccc2ccccc2c1/C=N/C1CCCCC1/N=C/c1c(O)ccc2ccccc12` (stereo unspecified) displayed an emission maximum (in CC#N) of 471 nm.

As for `CCC1(CC)c2cc(B(c3c(C)cc(C)cc3C)c3c(C)cc(C)cc3C)ccc2-c2c1c1c(c3c2C(CC)(CC)c2cc(B(c4c(C)cc(C)cc4C)c4c(C)cc(C)cc4C)ccc2-3)C(CC)(CC)c2cc(B(c3c(C)cc(C)cc3C)c3c(C)cc(C)cc3C)ccc2-1`, the emission maximum was 386 nm (in C1CCOC1); 403 nm (in CC#N); 396 nm (in CC(C)=O); 382 nm (in CCCCCC); 385 nm (in Cc1ccccc1).

On to `CCOC(=O)CCCCCn1c2ccc(OC)cc2c(=O)c2cc3c(cc21)c(=O)c1cc(OC)ccc1n3CCCCCC(=O)OCC`, for which, under “in CCO”, the emission maximum amounted to 592 nm.

The compound `CCN(CC)c1ccc(/C=C/c2cc(/C=C/c3ccc(N(CC)CC)cc3)nc(N)n2)cc1` had an emission maximum (in Cc1ccccc1) of 468 nm and an emission maximum (in ClC(Cl)Cl) of 518 nm.

As to `CCOC(=O)c1c2c3c(ccc(C)c3c3cc4c(cc13)[Si](C)(C)O[Si]4(C)C)N(C)C2=O`, the emission maximum (in CC#N) is recorded as 413 nm.

Compound `N#CC1=CC(c2ccccc2)=CC(C#N)=P1(c1ccccc1)c1ccccc1` had an emission maximum (in ClC(Cl)Cl) of 525 nm.

With `F[B-]1(F)n2c(c3cccc4cccc2c43)=Nc2ccc3ccccc3[n+]21`, the emission maximum (in C1CCOC1) was determined as 508 nm; the emission maximum (in CC#N) was found to be 505 nm; the emission maximum (in CCCCCC) came to 502 nm; the emission maximum (in Cc1ccccc1) is recorded as 511 nm; the emission maximum (in ClCCl) was 536 nm.

In turn, `COC(=O)C1=C(C(=O)OC)C2(c3cc([N+](=O)[O-])ccc3-c3ccc([N+](=O)[O-])cc32)C2(/C=C/c3ccccc3)c3cc(OC)c(OC)cc3CCN12` (stereo unspecified) had an emission maximum (in ClCCl) of 495 nm.

`CN(C)c1ccc(-n2c(-c3ccc(C#N)cc3)nc3ccccc32)cc1` registered an emission maximum (in CC#N) of 586 nm.

Turning to `COc1ccccc1C1=[N+]2C(=Cc3c4c(c(-c5ccccc5OC)n3[B-]2(F)F)C2CCC4CC2)C2=C1C1CCC2CC1`, under “in ClCCl”, the emission maximum was 583 nm.

As to `C[Si](C)(c1ccc2cc3ccccc3cc2c1)[Si](C)(C)c1ccc2cc3ccccc3cc2c1`, the emission maximum by setting is: (in C1CCCCC1) 415 nm; (in CC#N) 413 nm.

The compound `CCN(CC)c1ccc2c(c1)oc(=O)c1cc3c(-c4ccccc4)nn(C)c3nc12` showed an emission maximum (in ClCCl) of 506 nm.

Compound `CCCCCOc1cc2oc(=O)c3c4ccc(C#N)cc4c4ccc5cccc6c(c1)c2c3c4c56` had an emission maximum (in C1CCOC1) of 444 nm.
